Biological target: recombinant human SYK (GST-hSYK fusion protein) (Homo sapiens, UniProt P43405)
Assay: biochemical
[1] = rhSYK Activity (IC50), recombinant human GST-SYK 5 pM, ATP 25 μM, biotinylated substrate peptide 250 nM, HTRF, 10-dose titration

From the text: Homogeneous Time-Resolved Fluorescence (HTRF) Assay for the Recombinant Human SYK Enzyme:

Cc1cc(Nc2nccc(OC3CCCNC3)n2)cc(-c2cnc(C3(O)CCC3)s2)c1 (stereo not shown) [Example 94A-26]
IC50 [1]: < 0.1 µM

Cc1cc(Nc2nccc(C(F)(F)F)n2)cc(-c2cnc(C(C)(O)c3ccc(C(=O)O)cn3)s2)c1 (stereo not shown) [Example 150, 6-{1-Hydroxy-1-[5-(3-methyl-5-{[4-(trifluoromethyl)pyrimidin-2-yl]amino}phenyl)-1,3-thiazol-2-yl]ethyl}pyridine-3-carboxylic acid]
IC50 [1]: < 0.1 µM

Cc1cc(Nc2nccc(C(F)(F)F)n2)cc(-c2cnc([C@]3(O)CC[C@](C)(C(=O)O)CC3)s2)c1 [Example 33A-12]
IC50 (rhSYK Activity, Table 33-A): < 0.1 µM

Cc1cc(Nc2nccc(C(C)C)n2)cc(-c2cnc(C(C)(C)S(N)(=O)=O)s2)c1 [Example 70-2]
IC50 (rhSYK Activity, Table 70): < 0.1 µM

COCc1cc(Nc2nccc(C(F)(F)F)n2)cc(-c2cnc([C@@]3(O)CC[C@H](C(=O)O)C(C)(C)C3)s2)c1 [Example 113A-62]
IC50 (rhSYK Activity, Table 113A): < 0.1 µM

Cc1cc(Nc2nccc(C(F)(F)F)n2)cc(-c2cnc(C(C)(C)NS(C)(=O)=O)s2)c1 [61A-4]
IC50 (rhSYK Activity, Table 61A): < 0.1 µM

Cc1cc(Nc2nccc(C(=O)N3CCOCC3)n2)cc(-c2cnc(C(C)(O)C(F)(F)F)s2)c1 (stereo not shown) [69-1]
IC50 (rhSYK Activity, table after Example 69): 0.1 to 1 µM

Cc1cc(Nc2nccc(C(F)(F)F)n2)cc(-c2cnc(C3(O)CCN(C(=O)c4nc[nH]n4)CC3)s2)c1 [Example 54A-30]
IC50 (RHSYK Activity, Table 54A): < 0.1 µM

Cc1cc(Nc2nccc(C(F)F)n2)cc(-c2cnc(C3(O)CCC(C(=O)O)C(C)C3)s2)c1 (stereo not shown) [116A-18]
IC50 (rhSYK Activity, Table 116A): < 0.1 µM

CS(=O)(=O)N1CCN(c2cc(Nc3nccc(C(F)(F)F)n3)cc(-c3cnc(C4(O)CCC4)s3)c2)CC1 [24-4]
IC50 (rhSYK Activity, Table 24): < 0.1 µM

COC(=O)C1CC(O)(c2ncc(-c3cc(C)cc(Nc4nccc(C(F)(F)F)n4)c3)s2)CCN1 (stereo not shown) [46-2]
IC50 (rhSYK Activity, Table 46): < 0.1 µM

Cc1cc(Nc2nccc(C(F)(F)F)n2)cc(-c2cnc(C3(O)CC(C)C(C(=O)O)C(C)C3)s2)c1 (stereo not shown) [Example 113B-24]
IC50 (rhSYK Activity, Table 113B): < 0.1 µM

Cc1cc(Nc2nccc(C(F)(F)F)n2)cc(-c2cnc(C3(O)CCC/C(=N\O)C3(C)C)s2)c1 (stereo not shown) [Example 156, (3E)-3-(Hydroxyimino)-2,2-dimethyl-1-[5-(3-methyl-5-{[4-(trifluoromethyl)pyrimidin-2-yl]amino}phenyl)-1,3-thiazol-2-yl]cyclohexanol]
IC50 [1]: < 0.1 µM

Cc1cc(Nc2nccc(C(F)(F)F)n2)cc(-c2cnc(C3(O)CC[C@H]4C(C(=O)O)[C@H]43)s2)c1 (stereo partly shown) [Example 33C-6]
IC50 (rhSYK Activity, Table 33C): < 0.1 µM

Cc1cc(Nc2nccc(C(F)(F)F)n2)cc(-c2cnc(C3(O)CCCN(C(=O)Cc4cccnc4)CC3)s2)c1 (stereo not shown) [Example 54D-81]
IC50 (rhSYK Activity, Table 54D): < 0.1 µM

COc1nc(Nc2cc(C)cc(-c3cnc(C4(O)CCC4)s3)c2)ncc1Cl [Example 102, 1-(5-{3-[(5-chloro-4-methoxypyrimidin-2-yl)amino]-5-methylphenyl}-1,3-thiazol-2-yl)-cyclobutanol]
IC50 [1]: < 0.1 µM

COC(=O)C1(NC(C)=O)CCC(O)(c2ncc(-c3cc(C)cc(Nc4nccc(C(F)(F)F)n4)c3)s2)CC1 (stereo not shown) [Example 33A-14]
IC50 (rhSYK Activity, Table 33-A): < 0.1 µM

C=Cc1ccnc(Nc2cc(C)cc(-c3cnc([C@@]4(O)CC[C@H](C(=O)OC)C(C)(C)C4)s3)c2)n1 [Example 101-5]
IC50 [1]: < 0.1 µM

Cc1cc(Nc2nccc(C)n2)cc(-c2cnc(C3(O)CC(C)C(C(=O)OC(C)C)C(C)C3)s2)c1 (stereo not shown) [Example 113B-23]
IC50 (rhSYK Activity, Table 113B): 0.1 to 1 µM

Cc1cc(Nc2nccc(C(C)C)n2)cc(-c2cnc(C3(O)CCNC(=O)CC3)s2)c1 (single isomer, unassigned) [Example 10A-2]
IC50 (rhSYK Activity, Table 10, Formula A): < 0.1 µM

Cc1cc(Nc2nccc(C(F)(F)F)n2)cc(-c2cnc(C3(O)CCN(C(=O)OC(C)(C)C)C3)s2)c1 (stereo not shown) [54B-4]
IC50 (rhSYK Activity, Table 54B): 0.1 to 1 µM

Cc1cc(Nc2ncc(Cl)c(C)n2)cc(-c2cnc([C@]3(O)CC[C@@H](O)CC3)s2)c1 [8A-2]
IC50 (rhSYK Activity, Table 8A): < 0.1 µM

Cc1cc(Nc2nccc(C(F)(F)F)n2)cc(-c2cnc(C(C)(O)CCC(=O)O)s2)c1 (stereo not shown) [Example 33D-10]
IC50 (rhSYK Activity, Table 33D): < 0.1 µM

COc1ccnc(Nc2cc(C)cc(-c3cnc(C(C)(O)C(F)(F)F)s3)c2)n1 (stereo not shown) [Example 100B-1]
IC50 [1]: < 0.1 µM

Cc1cc(Nc2ncc(Cl)cn2)cc(-c2cnc(C3(O)CCC(C(=O)O)C(C)(C)C3)s2)c1 (single isomer, unassigned) [Example 33A-43]
IC50 (rhSYK Activity, Table 33-A): < 0.1 µM

Cc1cc(Nc2nccc(C3CCCCC3)n2)cc(-c2cnc(C3(O)CCC3)s2)c1 [Example 107-2]
IC50 [1]: < 0.1 µM

Cc1cc(Nc2ncc(C(=O)O)cn2)cc(-c2cnc(C3(O)CCC3)s2)c1 [Example 68-1]
IC50 (rhSYK Activity, table after Example 68): 0.1 to 1 µM

Cc1cc(Nc2nccc(C(F)(F)F)n2)cc(-c2cnc(C3(O)CCCN(C(=O)CC4CCOCC4)CC3)s2)c1 (stereo not shown) [Example 54D-96]
IC50 (rhSYK Activity, Table 54D): < 0.1 µM

Cc1cc(Nc2nccc(C(F)(F)F)n2)cc(-c2cnc(CCC(=O)NCCO)s2)c1 [Example 79-6]
IC50 [1]: < 0.1 µM

Cc1cc(Nc2ncccn2)cc(-c2cnc(C3(NC(N)=O)CCC3)s2)c1 [Example 64-3]
IC50 (rhSYK Activity, Table 64, first part): < 0.1 µM

Cc1cc(Nc2nccc(C(F)(F)F)n2)cc(-c2cnc(C(C)N(C)C)s2)c1 (stereo not shown) [Example 88A-38]
IC50 [1]: < 0.1 µM

Cc1cc(Nc2nccc(C(F)(F)F)n2)cc(-c2cnc(C3(NS(=O)(=O)CC(F)(F)F)COC3)s2)c1 [Example 61B-7]
IC50 (rhSYK Activity, Table 61B): < 0.1 µM

Cc1cc(Nc2nccc(C(F)(F)F)n2)cc(-c2cnc(C3(O)CCCN(C(=O)C4CC4C(=O)O)CC3)s2)c1 (stereo not shown) [Example 54D-71]
IC50 (rhSYK Activity, Table 54D): < 0.1 µM

Cc1cc(Nc2ncc(F)c(C3CC3)n2)cc(-c2cnc(C(C)(C)S(N)(=O)=O)s2)c1 [74A-6]
IC50 (rhSYK Activity, Table 74A): < 0.1 µM

Cc1cc(Nc2nccc(C(F)(F)F)n2)cc(-c2cnc(C3(O)CCCN(C(=O)C(O)C(F)(F)F)CC3)s2)c1 (stereo not shown) [Example 54D-97]
IC50 (rhSYK Activity, Table 54D): < 0.1 µM

Cc1cc(Nc2nccc(C(F)(F)F)n2)cc(-c2cnc(C3(O)CCC(CC(=O)O)C3)s2)c1 (single isomer, unassigned) [Example 33B-25]
IC50 (rhSYK Activity, Table 33B): < 0.1 µM

Cc1cc(Nc2nccc(C(F)(F)F)n2)cc(-c2cnc(C3=CCC(C(=O)O)CC3)s2)c1 (stereo not shown) [Example 36A-3]
IC50 (rhSYK Activity, Table 36A): < 0.1 µM

Cc1cc(Nc2nccc(OCCC3CCOCC3)n2)cc(-c2cnc(C3(O)CCC3)s2)c1 [Example 94A-5]
IC50 [1]: < 0.1 µM

Cc1cc(Nc2nccc(C)n2)cc(-c2cnc([C@]3(O)CC[C@@H](C(=O)O)CC3)s2)c1 [Example 33A-30]
IC50 (rhSYK Activity, Table 33-A): < 0.1 µM

Cc1cc(Nc2ncccn2)cc(-c2cnc(C3(N)CCC3)s2)c1 [Example 62-1]
IC50 (rhSYK Activity, Table 62): < 0.1 µM

COc1nc(Nc2cc(C)cc(-c3cnc(C4(O)CCC(C(=O)O)C(C)(C)C4)s3)c2)ncc1Cl (stereo not shown) [116A-36]
IC50 (rhSYK Activity, Table 116A): < 0.1 µM

Cc1cc(Nc2nccc(C(F)(F)F)n2)cc(-c2cnc(CN3CCC(C)(O)CC3)s2)c1 [Example 88B-5]
IC50 [1]: < 0.1 µM

Cc1cc(Nc2nccc(S(C)(=O)=O)n2)cc(-c2cnc(C3(O)CCC3)s2)c1 [Example 108A-39]
IC50 (rhSYK Activity, Table 108A): < 0.1 µM

Cc1cc(Nc2nccc(C(F)(F)F)n2)cc(-c2cnc(-c3cnn(CCC#N)c3)s2)c1 [Example 115-2]
IC50 (rhSYK Activity, Table 115): < 0.1 µM

CNCCOc1ccnc(Nc2cc(C)cc(-c3cnc(C4(O)CCC4)s3)c2)n1 [Example 94A-23]
IC50 [1]: 0.1 to 1 µM

CC1(C)CC(O)(c2ncc(-c3cc(CO)cc(Nc4nccc(C(F)(F)F)n4)c3)s2)CCC1C(=O)O (single isomer, unassigned) [Example 33A-51]
IC50 (rhSYK Activity, Table 33-A): < 0.1 µM

Cc1cc(Nc2ncc(C3CC3)cn2)cc(-c2cnc(C(C)(O)C(F)(F)F)s2)c1 (stereo not shown) [Example 100B-4]
IC50 [1]: 1 to 10 µM

COc1nc(Nc2cc(C)cc(-c3cnc(C4(NC(=O)NC(N)=O)CCC4)s3)c2)ncc1Cl [65-8]
IC50 (rhSYK Activity, Table 65): < 0.1 µM

FC(F)(F)c1ccnc(Nc2cccc(-c3cnc(C4CCCO4)s3)c2)n1 (stereo not shown) [Example 21-1]
IC50 (rhSYK Activity, Table 21): < 0.1 µM

Nc1cc(Nc2nccc(OC3CCOCC3)n2)cc(-c2cnc(C3(O)CCC3)s2)c1 [Example 109-9]
IC50 (rhSYK Activity, Table 109): < 0.1 µM

CCc1ccnc(Nc2cc(C)cc(-c3cnc(C4(O)CCC(C(=O)O)C(C)C4)s3)c2)n1 (stereo not shown) [Example 113A-14]
IC50 (rhSYK Activity, Table 113A): < 0.1 µM

Cc1cc(Nc2nccc(C(F)(F)F)n2)cc(-c2cnc([C@]3(O)CC[C@@H](NC(=O)Cc4ccccn4)CC3)s2)c1 [Example 54E-21]
IC50 (rhSYK Activity, Table 54E): < 0.1 µM

Cc1cc(Nc2nccc(C(F)(F)F)n2)cc(-c2cnc([C@]3(O)CC[C@@H](NC(=O)[C@@H](C)O)CC3)s2)c1 [Example 54E-1]
IC50 (rhSYK Activity, Table 54E): < 0.1 µM

Cc1cc(Nc2nccc(C(F)(F)F)n2)cc(-c2cnc(C3CCS(=O)(=O)CC3)s2)c1 [Example 137, N-{3-[2-(1,1-dioxidotetrahydro-2H-thiopyran-4-yl)-1,3-thiazol-5-yl]-5-methylphenyl}-4-(trifluoromethyl)pyrimidin-2-amine]
IC50 [1]: < 0.1 µM

Cc1cc(Nc2nccc(C(F)(F)F)n2)cc(-c2cnc(CCc3nnc(C4CC4)o3)s2)c1 [Example 79-9]
IC50 [1]: < 0.1 µM

COC(=O)C(C)N1CCC(O)(c2ncc(-c3cc(C)cc(Nc4nccc(C(F)(F)F)n4)c3)s2)CC1 (stereo not shown) [Example 54A-72]
IC50 (RHSYK Activity, Table 54A): < 0.1 µM

Cc1cc(Nc2nccc(C(F)(F)F)n2)cc(-c2cnc(CNCC3(CO)CCOCC3)s2)c1 [Example 88A-49]
IC50 [1]: < 0.1 µM

COC/C=C/c1ccnc(Nc2cc(C)cc(-c3cnc(C4(O)CCC(C(=O)OC(C)(C)C)CC4)s3)c2)n1 (stereo not shown) [Example 104-1]
IC50 [1]: 0.1 to 1 µM

Cc1cc(Nc2nccc(C(F)(F)F)n2)cc(-c2cnc(C3(O)CCCN(C(=O)Cn4cnnn4)CC3)s2)c1 (stereo not shown) [Example 54D-56]
IC50 (rhSYK Activity, Table 54D): < 0.1 µM

Cc1cc(Nc2nccc(C(F)(F)F)n2)cc(-c2cnc(CN)s2)c1 [Example 88A-40]
IC50 [1]: < 0.1 µM

COC(=O)[C@@H]1CC[C@@](O)(c2ncc(-c3cc(C)cc(Nc4nccc(OC)n4)c3)s2)CC1(C)C [Example 113A-55]
IC50 (rhSYK Activity, Table 113A): < 0.1 µM

Reference: US8551984B2, “Aminopyrimidines as SYK inhibitors” (Merck Sharp & Dohme Corp., priority 2009, dated 2013)
